“Also recorded” adds a separate entry of the source.
Columns and labels:
[1] = test system: baboon vascular grafts (graft intimal hyperplasia); experiment: Inhibition of graft intimal hyperplasia by polyamine infusion, baboon aortoiliac bypass graft model; assay type: in vivo; set-up: thickness of grafts, Left Proximal Ave. / thickness of grafts, Left Distal Ave. (Treated site): unit not given here; conditions: for thickness of grafts, Left Distal Ave. (Treated site): left distal anastomosis infused with polyamine; for thickness of grafts, Left Distal Ave. (Treated site) / thickness of grafts, Left Proximal Ave.: pump 2.5 ul/hr for 28 days, one animal per line; for thickness of grafts, Left Proximal Ave.: polyamine-infused left graft, proximal anastomosis upstream of polyamine administration
Protocol: The procedure of Chen et al., Journal of Vascular Surgery 31(2):354 (2000) was used to prepare the animals. Briefly, baboons underwent bilateral aortoiliac bypass grafting with expanded polytetrafluoroethylene grafts. The distal anastomosis of one graft (the left graft) was infused with polyamine; the distal anastomosis of the contralateral graft (right graft) was infused with placebo (saline). The drugs were infused with the Alzet 2ML4 pump at a flow rate of 2.5 ul/hr for 28 days. For administration of CGC-11093, the pump contained 4.4 mg/ml (10 mM) drug and delivered 266 ug/day (7.5 mg in 28 days). For administration of CGC-11159, drug concentration was also at 10 mM; the pump delivered 646.2 ug/day (18.1 mg in 28 days). After 28 days the grafted vessels were harvested and analyzed. All anastomosis/graft samples were harvested by in vivo pressure-perfusion fixation with 10% Neutral Buffered Formalin (NBF) and fixed further overnight in 10% NBF. Samples were cut into several sections (noting proximal and distal) and marked with green dye for standard overnight processing. Processed samples were embedded in paraffin sectioned at […] intervals and stained with conventional hematoxylin and eosin (H&E). For morphometric measurements and analysis, H&E sections were imaged with a Nikon EFD-3 microscope with darkfield and polarized light epiluminescence and an RT Slider Diagnostic Camera. Graft and vessel sections were analyzed with respect to total neointimal area and maximal thickness. Morphometric analysis was performed using Image-Pro Plus 4.5 (Media Cybernetics) software. All images were digitized and archived.

[2] = test system: pig femoral AV grafts (graft vein anastomosis/proximal vein, venous neointimal hyperplasia); experiment: Histopathology of PTA-injured porcine arteriovenous (AV) grafts with perivascular drug infusion; assay type: in vivo; conditions: for decrease in luminal stenosis versus placebo: perivascular injections, summary of results, dose not given
Protocol: This example was performed to determine the effect of injections of CGC-11093 and CGC-11159 on the vasculature of pigs following arteriovenous grafting. The histopathology of reactive and inflammatory responses of pig femoral AV grafts 14 days after Mercator Microsyringe infusion with 1 mg CGC-11093 (6 sites), 10 mg CGC-11093 (2 sites), 10 mg CGC-11159 (8 sites), or placebo saline injection (8 sites) in conjunction with percutaneous transluminal angioplasty (PTA) of the graft vein anastomosis and the proximal vein was assessed.
The methods used were as follows: all graft-vein anastomosis/proximal vein (GVA/PV) sites were subjected to angioplasty and perivascular injection via Mercator Microsyringe. Angioplasty was performed and drugs were infused 14 days after graft implant; animals were sacrificed 14 days later for histopathological examination. A total of 24 GVA/PV sites were evaluated. Six sites received 1 mg of CGC-11093; two sites received 10 mg CGC-11093, eight sites received 10 mg of CGC-11159, and eight sites received placebo injection with saline. All injections were performed in conjunction with percutaneous transluminal angioplasty (PTA) of the GVA and PV.
After 14 days, the graft vein anastomosis sites (GVA/PV) were excised en bloc and perfused with formalin. Sectioning of the graft vein anastomosis was performed as follows: briefly, tissue sections were taken at approximately 5 mm intervals through the proximal vein (PV). Tissue sections were taken at approximately 3 mm intervals through the graft-vein anastomosis (GVA) site. Sections were taken at approximately […] intervals through the distal vein (DV). All tissues were routinely processed, embedded in paraffin, sectioned at 5 microns and stained with hematoxylin and eosin for histopathologic evaluation. Numerous histologic sections through each PV, DV and GVA were evaluated. Each section was labeled with the letter P, G, or D (P=proximal vein, G=graft vein anastomosis, and D=Distal vein) and with a corresponding number to indicate proximity to the graft vein anastomosis.
The histopathologic evaluation included a general description of relevant features regardirig tissue reaction and inflammation around the graft vein anastomosis (GVA) and through the proximal femoral vein (PV). Histopathologic features including inflammation, fibrosis, angiogenesis and venous neointimal hyperplasia (VNH) within the GVA and PV were assessed. Attempts were made to differentiate between histopathologic changes attributed to the surgical procedure, secondary affects of GVA, angioplasty and perivascular injection of drug via Mercator Microsyringe.
Initial histopathologic evaluation was performed on all tissues to define the common inflammatory and reactive changes in all specimens. An overall general description of changes in sections of PV and GVA was made. An estimate of the percent occlusion of the most severely affected segment in both the PV and GVA was made. Two precise, perpendicular cross sectional measurements of the lumen were made in the most severely affected section of the PV. In the GVA a single luminal diameter was measured in the most severely affected section. Next, a qualitative assessment of overall severity of VNH, as well as inflammation within the VNH and degree of angiogenesis within the VNH was made for both the PV and the GVA. Additionally, a general description of the overall perivascular tissue reaction around the PV and the GVA was recorded. Lastly, unique, and potentially significant, pathologic features were documented. Unique pathologic features generally included interpretation of the overall severity of the changes, presence or absence of an inflamed seroma, or presence of thrombosis or infection in the GVA or PV. When assessing the degree or severity of a certain histopathologic change (i.e. severity of VNH, etc) a qualitative scoring method was used. A score of 0=absent, 1=minimal, 2=mild, 3=moderate, 4=severe.

`CCCCCNCCCCNCC1CC1CNCCCCNCC` (racemic) [CGC-11302, N-{2-[(4-Ethylamino-butylamino)-methyl]-cyclopropylmethyl}-N′-pentyl-butane-1,4-diamine] was tested, and the “thickness of grafts, Left Distal Ave. (Treated site)” value (“thickness of grafts … (Treated site)” below) [1] was 0.822 and the “thickness of grafts, Left Proximal Ave.” value [1] was 1.047.

For `CCNCCCCNCC1CC1CNCCCCNCC` (stereo not shown) [CGC-11093], the “degree of VNH angiogenesis, summary” value ([2]; 1 mg) was “minimal to absent VNH angiogenesis”, the “histopathologic features/changes, summary” value ([2]; 1 mg) was “fewer significant or potentially deleterious histopathologic features; also recorded: less severe histopathologic changes” and the “severity of VNH inflammation, summary” value ([2]; 1 mg) was “minimal VNH inflammation”. For the same molecule, the “severity of overall VNH in PV and GVA, summary” value ([2]; 1 mg) was “minimal amount of VNH in both the PV and GVA”, the “vascular occlusion, summary” value ([2]; 1 mg, compared with other animals in the study) was “less severe vascular occlusion than other animals in the study” and the “decrease in luminal stenosis versus placebo” value [2] was 49.2%. The “thickness of grafts … (Treated site)” value [1] was 1.072 and the “thickness of grafts, Left Proximal Ave.” value [1] was 0.499.

With `CCNCCCCNCC1CC1CNCCCCNCC` (stereo not shown) [CGC-11098] the “thickness of grafts … (Treated site)” value [1] was 1.778 and the “thickness of grafts, Left Proximal Ave.” value [1] was 0.938.

`CCNCCCCNCCCCNCCCCNCCCCNCCCCNCCCCNCCCCNCCCCNCCCCNCC` [CGC-11159, CH3CH2—NH—(CH2CH2CH2CH2—NH—)9—CH2CH3] was tested, and the “degree of VNH angiogenesis in PV and GVA, summary” value ([2]; 10 mg) was “greater degree of VNH angiogenesis in the PV and GVA”, the “incidence of GVA/PV thrombosis” value ([2]; 10 mg) was “higher incidence of GVA/PV thrombosis” and the “luminal diameter of PV, summary” value ([2]; 10 mg) was “more likely to have a smaller luminal diameter”. The “perivascular tissue reaction (inflammation around the graft)” value ([2]; 10 mg) was “prominent, nodular lymphofollicular inflammation forming a rim surrounding the outside surface of the graft; also recorded: prominent, nodular to coalescing lymphocytic inflammation around the implanted graft material; also recorded: more prominent abnormal perivascular tissue reactions”, the “severity of overall VNH in PV and GVA, summary” value ([2]; 10 mg) was “more severe VNH in both the PV and GVA” and the “unique histopathologic features, summary” value ([2]; 10 mg) was “often developed luminal thrombosis of both the PV and GVA as well as prominent lymphofollicular inflammation surrounding the graft material”. The “sites that developed fibrin thrombosis within the graft, with some degree of vascular and/or graft occlusion” value ([2]; 10 mg, eight sites treated) was “five of eight”, the “luminal occlusion or stenosis of the PV and GVA, summary” value ([2]; 10 mg, most animals, generally associated with thrombosis of the graft) was “more severe luminal occlusion or stenosis of the PV and GVA” and the “severity of VNH inflammation, summary” value ([2]; 10 mg, probably associated with thrombus formation) was “greater severity of VNH inflammation”. The “decrease in luminal stenosis versus placebo” value [2] was 22.6%, the “decrease in average maximal thickness of hyperplasia in the vascular graft” value ([1]; left distal anastomosis compared with placebo-treated grafts (right proximal and distal anastomoses), 10 mM, 646.2 ug/day for 28 days) was ~50% and the “thickness of grafts … (Treated site)” value [1] was 0.336. The “thickness of grafts, Left Proximal Ave.” value [1] was 0.695.
